From ChEMBL document CHEMBL3352260, “Identification and development of biphenyl substituted iminosugars as improved dual glucosylceramide synthase/neutral glucosylceramidase inhibitors” (J Med Chem, 2014)

Columns and labels:
[1] = target: Sucrase-isomaltase, intestinal (Homo sapiens, UniProt P14410); assay: Inhibition of intestinal sucrase (unknown origin)
[2] = target: Maltase-glucoamylase (Homo sapiens, UniProt O43451); assay: Inhibition of intestinal maltase (unknown origin)
[3] = target: Lactase/phlorizin hydrolase (Homo sapiens, UniProt P09848); assay: Inhibition of intestinal lactase (unknown origin)
Lactase/phlorizin hydrolase, sequence (P09848 869-1927 limits assumed): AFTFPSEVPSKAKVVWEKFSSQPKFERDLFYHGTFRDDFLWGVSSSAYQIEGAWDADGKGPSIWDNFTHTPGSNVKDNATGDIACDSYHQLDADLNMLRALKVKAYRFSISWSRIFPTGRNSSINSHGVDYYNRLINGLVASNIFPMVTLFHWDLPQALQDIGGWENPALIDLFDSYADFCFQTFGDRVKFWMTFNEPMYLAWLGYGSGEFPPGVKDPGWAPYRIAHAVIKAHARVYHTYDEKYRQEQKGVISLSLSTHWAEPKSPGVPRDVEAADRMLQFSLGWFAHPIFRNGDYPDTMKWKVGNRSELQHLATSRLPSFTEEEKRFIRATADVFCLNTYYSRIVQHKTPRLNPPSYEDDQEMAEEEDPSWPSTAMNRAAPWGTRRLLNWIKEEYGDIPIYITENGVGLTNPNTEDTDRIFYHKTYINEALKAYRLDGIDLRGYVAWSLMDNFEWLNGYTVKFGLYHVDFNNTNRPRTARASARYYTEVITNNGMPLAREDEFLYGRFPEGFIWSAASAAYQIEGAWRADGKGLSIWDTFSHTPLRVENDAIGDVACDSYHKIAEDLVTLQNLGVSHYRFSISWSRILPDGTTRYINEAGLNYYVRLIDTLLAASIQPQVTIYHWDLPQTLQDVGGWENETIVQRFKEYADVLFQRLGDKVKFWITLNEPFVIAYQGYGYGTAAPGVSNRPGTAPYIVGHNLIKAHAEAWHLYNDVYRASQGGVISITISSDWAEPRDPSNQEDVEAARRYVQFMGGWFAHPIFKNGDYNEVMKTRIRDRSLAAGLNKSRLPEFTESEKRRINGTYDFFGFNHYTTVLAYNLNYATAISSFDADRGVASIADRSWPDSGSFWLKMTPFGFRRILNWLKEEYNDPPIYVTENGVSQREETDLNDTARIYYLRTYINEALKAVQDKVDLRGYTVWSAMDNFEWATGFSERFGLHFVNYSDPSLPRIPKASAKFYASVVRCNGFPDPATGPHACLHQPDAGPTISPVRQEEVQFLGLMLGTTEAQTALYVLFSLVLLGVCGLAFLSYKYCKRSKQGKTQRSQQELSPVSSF

[4] = target: T1, Lysosomal acid glucosylceramidase (Homo sapiens, UniProt P04062)
T1 sequence (P04062 whole entry): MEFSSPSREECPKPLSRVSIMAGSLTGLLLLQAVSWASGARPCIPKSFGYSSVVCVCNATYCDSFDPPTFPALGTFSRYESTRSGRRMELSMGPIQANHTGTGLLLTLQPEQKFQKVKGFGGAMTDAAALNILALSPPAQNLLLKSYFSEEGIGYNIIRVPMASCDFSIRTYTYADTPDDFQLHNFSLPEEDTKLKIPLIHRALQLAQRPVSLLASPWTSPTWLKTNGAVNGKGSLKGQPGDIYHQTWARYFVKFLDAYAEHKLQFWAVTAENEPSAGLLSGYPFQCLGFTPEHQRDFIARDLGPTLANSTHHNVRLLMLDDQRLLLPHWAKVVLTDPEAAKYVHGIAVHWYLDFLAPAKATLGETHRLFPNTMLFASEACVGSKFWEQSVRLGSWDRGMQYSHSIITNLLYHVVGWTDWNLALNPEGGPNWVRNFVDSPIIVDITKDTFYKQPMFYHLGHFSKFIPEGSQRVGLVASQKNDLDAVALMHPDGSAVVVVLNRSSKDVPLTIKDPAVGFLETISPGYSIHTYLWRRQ

[5] = target: T2, Beta-glucosidase (Homo sapiens, UniProt Q9HCG7)
T2 sequence (Q9HCG7 whole entry): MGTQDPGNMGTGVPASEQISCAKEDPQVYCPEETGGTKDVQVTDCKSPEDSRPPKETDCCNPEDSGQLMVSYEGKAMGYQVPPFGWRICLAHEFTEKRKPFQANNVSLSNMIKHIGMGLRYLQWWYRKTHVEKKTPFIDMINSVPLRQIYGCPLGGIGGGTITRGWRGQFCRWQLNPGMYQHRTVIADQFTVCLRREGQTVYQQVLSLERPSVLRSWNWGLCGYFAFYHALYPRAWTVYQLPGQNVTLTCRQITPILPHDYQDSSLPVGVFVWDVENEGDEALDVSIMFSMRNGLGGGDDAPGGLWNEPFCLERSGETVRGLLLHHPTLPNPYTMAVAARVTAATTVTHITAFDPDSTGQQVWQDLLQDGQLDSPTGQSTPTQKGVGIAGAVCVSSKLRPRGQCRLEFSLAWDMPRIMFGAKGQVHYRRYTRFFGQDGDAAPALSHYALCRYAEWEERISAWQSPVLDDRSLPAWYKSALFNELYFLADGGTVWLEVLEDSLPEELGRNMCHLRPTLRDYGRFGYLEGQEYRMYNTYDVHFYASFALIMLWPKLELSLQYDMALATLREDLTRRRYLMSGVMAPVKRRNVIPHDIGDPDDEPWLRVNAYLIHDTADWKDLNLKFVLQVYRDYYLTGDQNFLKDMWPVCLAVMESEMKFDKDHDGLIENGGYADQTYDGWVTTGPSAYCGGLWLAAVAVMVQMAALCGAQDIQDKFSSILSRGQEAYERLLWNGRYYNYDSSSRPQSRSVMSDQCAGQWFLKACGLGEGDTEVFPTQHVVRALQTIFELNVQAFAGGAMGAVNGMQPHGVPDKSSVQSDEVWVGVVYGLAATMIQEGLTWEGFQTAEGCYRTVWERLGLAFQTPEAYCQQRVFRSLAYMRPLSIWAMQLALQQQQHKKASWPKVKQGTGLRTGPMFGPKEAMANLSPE

[6] = target: T3, Ceramide glucosyltransferase (Homo sapiens, UniProt Q16739)
T3 sequence (Q16739 whole entry): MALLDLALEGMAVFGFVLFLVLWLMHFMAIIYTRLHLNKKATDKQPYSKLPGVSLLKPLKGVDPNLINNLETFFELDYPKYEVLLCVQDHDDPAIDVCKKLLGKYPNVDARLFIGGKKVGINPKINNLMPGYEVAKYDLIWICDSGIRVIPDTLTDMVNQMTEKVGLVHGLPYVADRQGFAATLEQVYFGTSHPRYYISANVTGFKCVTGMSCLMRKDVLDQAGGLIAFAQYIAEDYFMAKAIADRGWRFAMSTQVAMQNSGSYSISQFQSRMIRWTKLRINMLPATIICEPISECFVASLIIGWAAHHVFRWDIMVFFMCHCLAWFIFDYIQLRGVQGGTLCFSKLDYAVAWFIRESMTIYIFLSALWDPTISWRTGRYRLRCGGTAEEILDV

Maltase-glucoamylase, sequence (O43451 whole entry): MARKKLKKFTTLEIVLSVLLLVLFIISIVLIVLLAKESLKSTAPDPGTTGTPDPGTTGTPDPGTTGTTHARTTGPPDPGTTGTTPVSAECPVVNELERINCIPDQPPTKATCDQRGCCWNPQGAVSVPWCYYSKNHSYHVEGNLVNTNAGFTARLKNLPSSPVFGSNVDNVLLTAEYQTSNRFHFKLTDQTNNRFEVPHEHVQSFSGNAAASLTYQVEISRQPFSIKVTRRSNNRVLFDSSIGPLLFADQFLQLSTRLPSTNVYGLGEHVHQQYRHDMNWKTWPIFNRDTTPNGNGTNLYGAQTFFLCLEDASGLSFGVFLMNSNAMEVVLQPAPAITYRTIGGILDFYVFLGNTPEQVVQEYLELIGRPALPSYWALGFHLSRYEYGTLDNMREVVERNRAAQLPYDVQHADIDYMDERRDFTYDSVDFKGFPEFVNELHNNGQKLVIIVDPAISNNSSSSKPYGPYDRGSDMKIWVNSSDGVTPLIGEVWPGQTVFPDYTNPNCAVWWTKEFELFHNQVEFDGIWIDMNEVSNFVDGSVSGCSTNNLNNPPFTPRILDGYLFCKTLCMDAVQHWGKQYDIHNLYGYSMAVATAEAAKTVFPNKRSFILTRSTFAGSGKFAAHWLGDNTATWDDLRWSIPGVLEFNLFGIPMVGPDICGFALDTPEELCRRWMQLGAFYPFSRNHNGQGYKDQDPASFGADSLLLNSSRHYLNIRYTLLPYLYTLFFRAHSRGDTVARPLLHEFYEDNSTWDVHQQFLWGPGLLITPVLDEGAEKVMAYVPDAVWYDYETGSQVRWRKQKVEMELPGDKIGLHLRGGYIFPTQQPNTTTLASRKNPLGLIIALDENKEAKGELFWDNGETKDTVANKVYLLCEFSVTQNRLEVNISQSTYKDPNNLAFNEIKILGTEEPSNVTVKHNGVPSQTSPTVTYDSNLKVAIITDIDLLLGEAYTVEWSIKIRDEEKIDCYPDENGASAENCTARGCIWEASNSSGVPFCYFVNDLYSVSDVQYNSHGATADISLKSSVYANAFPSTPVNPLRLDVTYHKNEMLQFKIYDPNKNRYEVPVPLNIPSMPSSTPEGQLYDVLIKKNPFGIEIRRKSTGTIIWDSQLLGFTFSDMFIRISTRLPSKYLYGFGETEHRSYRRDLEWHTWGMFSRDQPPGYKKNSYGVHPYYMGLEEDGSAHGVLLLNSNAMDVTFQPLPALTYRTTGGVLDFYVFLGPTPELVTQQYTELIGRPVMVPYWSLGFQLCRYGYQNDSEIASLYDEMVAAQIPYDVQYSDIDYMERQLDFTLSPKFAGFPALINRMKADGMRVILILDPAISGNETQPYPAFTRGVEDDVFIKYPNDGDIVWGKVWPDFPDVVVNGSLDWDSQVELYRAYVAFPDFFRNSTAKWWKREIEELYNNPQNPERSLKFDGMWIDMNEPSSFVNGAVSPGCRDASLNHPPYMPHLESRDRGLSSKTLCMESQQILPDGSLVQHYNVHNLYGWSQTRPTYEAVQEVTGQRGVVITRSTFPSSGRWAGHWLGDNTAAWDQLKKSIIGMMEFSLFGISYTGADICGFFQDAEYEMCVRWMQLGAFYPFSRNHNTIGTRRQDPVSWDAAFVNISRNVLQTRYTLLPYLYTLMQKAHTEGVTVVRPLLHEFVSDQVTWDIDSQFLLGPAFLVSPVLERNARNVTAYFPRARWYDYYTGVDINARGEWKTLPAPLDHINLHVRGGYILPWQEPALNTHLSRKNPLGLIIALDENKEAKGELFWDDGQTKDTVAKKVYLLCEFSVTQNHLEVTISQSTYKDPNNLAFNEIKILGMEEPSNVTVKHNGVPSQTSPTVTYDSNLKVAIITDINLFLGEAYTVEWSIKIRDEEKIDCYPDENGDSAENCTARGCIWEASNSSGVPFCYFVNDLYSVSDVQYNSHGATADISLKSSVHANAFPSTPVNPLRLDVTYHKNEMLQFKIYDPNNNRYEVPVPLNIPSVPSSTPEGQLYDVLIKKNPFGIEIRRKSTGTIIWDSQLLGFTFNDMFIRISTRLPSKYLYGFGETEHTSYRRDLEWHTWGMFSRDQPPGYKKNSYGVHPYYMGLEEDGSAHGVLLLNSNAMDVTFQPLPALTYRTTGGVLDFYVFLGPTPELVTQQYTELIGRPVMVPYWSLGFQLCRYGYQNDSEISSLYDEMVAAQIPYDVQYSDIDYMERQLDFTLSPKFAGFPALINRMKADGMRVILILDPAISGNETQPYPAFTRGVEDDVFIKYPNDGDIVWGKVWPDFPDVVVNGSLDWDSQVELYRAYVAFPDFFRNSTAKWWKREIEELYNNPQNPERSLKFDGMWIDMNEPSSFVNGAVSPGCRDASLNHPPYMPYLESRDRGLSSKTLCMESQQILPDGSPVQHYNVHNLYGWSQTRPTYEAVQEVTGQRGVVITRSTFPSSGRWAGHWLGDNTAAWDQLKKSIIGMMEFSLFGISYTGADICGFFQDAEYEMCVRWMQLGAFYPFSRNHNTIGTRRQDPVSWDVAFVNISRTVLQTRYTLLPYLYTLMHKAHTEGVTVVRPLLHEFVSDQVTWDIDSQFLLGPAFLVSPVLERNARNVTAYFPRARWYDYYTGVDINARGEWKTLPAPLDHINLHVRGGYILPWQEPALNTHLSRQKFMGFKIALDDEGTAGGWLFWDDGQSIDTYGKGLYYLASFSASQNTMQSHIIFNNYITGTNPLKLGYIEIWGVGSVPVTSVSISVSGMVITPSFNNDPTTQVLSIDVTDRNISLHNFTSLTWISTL

Compound	IC50 [1] [nM]	IC50 [2] [nM]	IC50 [3] [nM]	IC50 [4] [nM]	IC50 [5] [nM]	IC50 [6] [nM]
C[C@H](OCCCCCN1C[C@H](O)[C@@H](O)[C@H](O)[C@@H]1CO)c1ccc(-c2ccccc2)cc1	> 100000	> 100000	> 100000			
OC[C@H]1[C@@H](O)[C@H](O)[C@@H](O)CN1CCCCCOCc1ccc(-c2ccccc2)cc1F	> 100000	> 100000	60000			
OC[C@H]1[C@@H](O)[C@H](O)[C@@H](O)CN1CCCCCOCC1CCCCC1				60000	6	70
OC[C@@H]1[C@@H](O)[C@H](O)[C@@H](O)CN1CCCCCOCc1ccc(-c2ccc3c(c2)OCO3)cc1				500	2	
OC[C@@H]1[C@@H](O)[C@H](O)[C@@H](O)CN1CCCCCOCc1ccc(-c2ccccc2)cc1	250	2000				
CC(C)CCC[C@@H](C)[C@H]1CC[C@H]2[C@@H]3CC=C4C[C@@H](OCCCCCN5C[C@H](O)[C@@H](O)[C@H](O)[C@@H]5CO)CC[C@]4(C)[C@H]3CC[C@]12C				15000	20	1000
OC[C@H]1[C@@H](O)[C@H](O)[C@@H](O)CN1CCCCCOCc1ccc2ccc3cccc4ccc1c2c34				15000	1	3
OC[C@H]1[C@@H](O)[C@H](O)[C@@H](O)CN1CCCCCCOCC12CC3CC(CC(C3)C1)C2				5000	2.5	250
OC[C@H]1[C@@H](O)[C@H](O)[C@@H](O)CN1CCCCCOCC1C2CC3CC(C2)CC1C3 (stereo partly drawn)				10000	2	80
OC[C@@H]1[C@@H](O)[C@H](O)[C@@H](O)CN1CCCCCOCc1ccccc1				300	1	750
OC[C@@H]1[C@@H](O)[C@H](O)[C@@H](O)CN1CCCCCOCc1cccc(-c2ccccc2)c1	200	1500	20000			
OC[C@H]1[C@@H](O)[C@H](O)[C@@H](O)CN1CCCCCOCc1ccc(-c2ccccc2)c(C(F)(F)F)c1	> 100000	> 100000	100000			
OC[C@@H]1[C@@H](O)[C@H](O)[C@@H](O)CN1CCCCCOCc1ccc2ccc3cccc4ccc1c2c34				500	3	3
OC[C@H]1[C@@H](O)[C@H](O)[C@@H](O)CN1CCCCCOCc1ccccc1				10000	3	200
OC[C@@H]1[C@@H](O)[C@H](O)[C@@H](O)CN1CCCCCOCC1CCCCC1				1500	4	500
O=C(CCCCCN1C[C@H](O)[C@@H](O)[C@H](O)[C@H]1CO)NC12CC3CC(CC(C3)C1)C2				500	9	1000
COc1ccccc1-c1ccc(COCCCCCN2C[C@H](O)[C@@H](O)[C@H](O)[C@H]2CO)cc1					3	
OC[C@H]1[C@@H](O)[C@H](O)[C@@H](O)CN1CCCC(F)(F)COCc1ccc(-c2ccccc2)cc1	> 100000	> 100000	80000			
OC[C@@H]1[C@@H](O)[C@H](O)[C@@H](O)CN1CCCCCCOCC12CC3CC(CC(C3)C1)C2				200	2	300
OC[C@H]1[C@@H](O)[C@H](O)[C@@H](O)CN1CCCCCOCc1ccccc1-c1ccccc1	95000	> 100000	25000			
OC[C@@H]1[C@@H](O)[C@H](O)[C@@H](O)CN1CCCCCOCc1ccc(-c2cccnc2)cc1						2000

Compound	IC50 [1] [nM]	IC50 [2] [nM]	IC50 [3] [nM]	IC50 [4] [nM]	IC50 [5] [nM]	IC50 [6] [nM]
CC(C)=CCC/C(C)=C/CC/C(C)=C/CCOCCCCCN1C[C@H](O)[C@@H](O)[C@H](O)[C@@H]1CO				50000	100	2500
OC[C@@H]1[C@@H](O)[C@H](O)[C@@H](O)CN1CCCCCOCc1ccc(-c2ccc3c(c2)OCCO3)cc1				250	30	40
OC[C@@H]1[C@@H](O)[C@H](O)[C@@H](O)CN1CCCCCOCc1ccc(-c2ccccc2)cc1C(F)(F)F	1500	8000	50000			
OC[C@@H]1[C@@H](O)[C@H](O)[C@@H](O)CN1CCCCCOCc1ccccc1-c1ccccc1	200	1500	17000			
OC[C@H]1[C@@H](O)[C@H](O)[C@@H](O)CN1CCCCCOCc1ccc(-c2ccccc2)c(F)c1 [NIZUBAGLUSTAT]	> 100000	> 100000	50000			
OC[C@@H]1[C@@H](O)[C@H](O)[C@@H](O)CN1CCCCCOCc1ccc(-c2ccc3c(c2)OCCCO3)cc1					15	
OC[C@@H]1[C@@H](O)[C@H](O)[C@@H](O)CN1CCCCCOCc1ccc(-c2ccccc2)cc1F	250	2500	30000		0.08	
OC[C@@H]1[C@@H](O)[C@H](O)[C@@H](O)CN1CCCCCOCc1ccc2ccccc2c1				1000	1	3
OC[C@H]1[C@@H](O)[C@H](O)[C@@H](O)CN1CCCCCOCc1ccc(-c2ccccc2)cc1C(F)(F)F	> 100000	> 100000	125000			
OC[C@@H]1[C@@H](O)[C@H](O)[C@@H](O)CN1CCCCCOCc1ccc(-c2ccccc2)c(F)c1	400	3000	20000		0.08	
OC[C@@H]1[C@@H](O)[C@H](O)[C@@H](O)CN1CCCCCOCc1ccc(-c2cncnc2)cc1				10000	25	2000
OC[C@@H]1[C@@H](O)[C@H](O)[C@@H](O)CN1CCCCCOCc1ccc(-c2cccc(F)c2)cc1					1	
C[C@@H](OCCCCCN1C[C@H](O)[C@@H](O)[C@H](O)[C@@H]1CO)c1ccc(-c2ccccc2)cc1	> 100000	> 100000	45000			
OC[C@@H]1[C@@H](O)[C@H](O)[C@@H](O)CN1CCCCCOCc1ccc(-c2ccccc2)c(C(F)(F)F)c1	1250	7000	45000		0.08	
OC[C@@H]1[C@@H](O)[C@H](O)[C@@H](O)CN1CCCCCOCc1ccc(-c2ccccc2F)cc1						75
OC[C@H]1[C@@H](O)[C@H](O)[C@@H](O)CN1CCCCCOCc1ccc(-c2ccccc2)cc1	70000	> 100000				
OC[C@H]1[C@@H](O)[C@H](O)[C@@H](O)CN1CCCCCOCc1ccc2ccccc2c1				50000	1	3
O=C(CCCCCN1C[C@H](O)[C@@H](O)[C@H](O)[C@@H]1CO)NC12CC3CC(CC(C3)C1)C2				40000	15	400
OC[C@@H]1[C@@H](O)[C@H](O)[C@@H](O)CN1CCCCCOCC1C2CC3CC(C2)CC1C3 (stereo partly drawn)				400	1	300
CC(C)CCC[C@@H](C)[C@H]1CC[C@H]2[C@@H]3CC=C4C[C@@H](OCCCCCN5C[C@H](O)[C@@H](O)[C@H](O)[C@H]5CO)CC[C@]4(C)[C@H]3CC[C@]12C				500	5	1000
